According to publication PMC9967275, “Screening the Pathogen Box to Discover and Characterize New Cruzain and TbrCatL Inhibitors” (Pathogens, 2023):

Target: cruzain (Trypanosoma cruzi, UniProt P25779);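 on Cruzain 0’ Inhibition: at 5 µM compound concentration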;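 on Cruzain 10’ Inhibition: at 5 µM compound concentration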;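 on Cruzain Inhibition 0’: at 5 µM compound concentration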;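 on Cruzain Inhibition 10’: at 5 µM compound concentration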
Experiment: biochemical
Conditions: 0’ (no pre-incubation); sheet Screening results
Procedure, shortened: (§1)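 Recombinant enzymes assayed by Z-Phe-Arg-AMC cleavage at 25 °C, fluorescence 340/440 nm over 5–7 min, with 10 min or no enzyme–compound preincubation.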

Chain of cruzain (P25779 123-337 limits assumed): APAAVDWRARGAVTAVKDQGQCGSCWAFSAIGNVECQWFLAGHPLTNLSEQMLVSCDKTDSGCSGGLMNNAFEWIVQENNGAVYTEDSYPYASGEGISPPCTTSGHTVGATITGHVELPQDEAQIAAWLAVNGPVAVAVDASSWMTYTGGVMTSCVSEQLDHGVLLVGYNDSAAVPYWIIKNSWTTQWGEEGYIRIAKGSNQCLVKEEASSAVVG

SMILES | Cruzain Inhibition 0’ [%]
COc1cccc(-n2nnnc2S(=O)(=O)Cc2ccccc2)c1 [MMV676388] | 15
O=C(c1n[nH]c2c1CCCC2)N1CCN(Cc2ccc3c(c2)OCO3)CC1 [MMV676389] | -6
O=C(Nc1cccnc1)c1c(O)c2cccc3c2n(c1=O)CC3 [MMV676395] | 10
c1coc(CNc2nc(N3CCCCC3)nc3ccccc23)c1 [MMV676401] | 4.6
CC(C)n1ncc2c(C(=O)NCC(c3cccs3)N3CCOCC3)cc(-c3ccccc3)nc21 (centres unmarked) [MMV676406] | 6
O=C(COc1cccc(F)c1)Nc1nc(-c2ccccn2)cs1 [MMV676409] | -227
N#Cc1nc(-c2ccccc2)oc1S(=O)(=O)c1ccc(Cl)cc1 [MMV676412] | 6
Cc1ccc(NC(=O)CC2COc3ccccc3O2)cc1Cl (centres unmarked) [MMV676431] | 0.5
Cc1ccc2nc(Cl)c(CNCc3cccs3)cc2c1 [MMV676439] | -0.1
CC(C)c1ncc(-c2ccncc2)c(C2CCC(CNC(=O)c3cccnc3)CC2)n1 (centres unmarked) [MMV676442] | 4
O=C(NC1CCCCC1)N1CCN(Cc2ccc3c(c2)OCO3)CC1 [MMV676444] | 0.4
CCCn1c(CNc2ccccc2O)nc2ccccc21 [MMV676445] | 1.2
CCc1nc2ccccc2n1CC(O)COc1cc(C)ccc1Cl (centres unmarked) [MMV676449] | 4.5
CCOC(=O)c1cc(-c2csc(Nc3c(C)cc(C)cc3C)n2)on1 [MMV676461] | -2.6
COc1ccccc1OCCCCn1c(C2CC2)nc2ccccc21 [MMV676474] | -7
Cc1cc(C)cc(COc2ccc3c(C)c(CCC(=O)O)c(=O)oc3c2C)c1 [MMV676476] | 1.9
CCc1c(C)nc(-n2nc(C)cc2NC(=O)c2ccccc2SC)[nH]c1=O [MMV676477] | -0.2
COC(=O)c1c(NC(=O)c2cc3ccccc3oc2=O)sc2c1CCN(Cc1ccccc1)C2 [MMV676480] | 24

Same assay, conditions: 0’ (pre-incubation time); Pathogen Box screening results

SMILES | Cruzain Inhibition 0’ [%]
O=C(Nc1n[nH]c(=S)s1)c1cc(Br)ccc1Cl [MMV676492] | 10

Same assay, conditions: 0’ (pre-incubation time); sheet "Screening results"

SMILES | Cruzain 0’ Inhibition [%]
CCS(=O)(=O)N(Cc1ccco1)Cc1cc2ccc(C)cc2[nH]c1=O [MMV676398] | 6.5
CC(Oc1ccccc1)C(=O)Nc1nc(-c2ccccn2)cs1 (centres unmarked) [MMV676411] | -2.3
NC(CC(=O)c1ccc(Cl)cc1Cl)C(Cl)(Cl)Cl (centres unmarked) [MMV676468] | 2.5
CCOc1ccc(OCC(=O)Nc2cc(C)cc(C)c2)cc1 [MMV676470] | 6
COc1cccc(OC)c1C(=O)Nc1ccc(Cl)c(-c2nc3ccccc3s2)c1 [MMV676472] | 8
O=C(C1CCN(c2nnc(-n3cccc3)s2)CC1)N1CCC(Cc2ccccc2)CC1 [MMV676478] | 0.9

Same assay, conditions: 5 µM, PB library solutions, 10 min pre-incubation, vs DMSO control

SMILES | Increase in the initial velocity of the reaction (%) 5 µM using PB samples Cruzain [%]
O=C(COc1cccc(F)c1)Nc1nc(-c2ccccn2)cs1 [MMV676409] | 510 ± 216

Same assay, conditions: 5 µM, solid samples, 10 min pre-incubation, vs DMSO control

SMILES | Increase in the initial velocity of the reaction (%) 5 µM using solid samples Cruzain [%]
O=C(COc1cccc(F)c1)Nc1nc(-c2ccccn2)cs1 [MMV676409] | -4 ± 2

Same assay, conditions: 100 µM, solid samples, 10 min pre-incubation, vs DMSO control

SMILES | Increase in the initial velocity of the reaction (%) 100 µM using solid samples Cruzain [%]
O=C(COc1cccc(F)c1)Nc1nc(-c2ccccn2)cs1 [MMV676409] | 0 ± 6

Same assay, conditions: 10’ (pre-incubation time); Pathogen Box screening results

SMILES | Cruzain Inhibition 10’ [%]
O=C(Nc1n[nH]c(=S)s1)c1cc(Br)ccc1Cl [MMV676492] | 27

Same assay, conditions: 10’ (pre-incubation time); sheet "Screening results"

SMILES | Cruzain 10’ Inhibition [%]
CCS(=O)(=O)N(Cc1ccco1)Cc1cc2ccc(C)cc2[nH]c1=O [MMV676398] | 28
CC(Oc1ccccc1)C(=O)Nc1nc(-c2ccccn2)cs1 (centres unmarked) [MMV676411] | 0.8
NC(CC(=O)c1ccc(Cl)cc1Cl)C(Cl)(Cl)Cl (centres unmarked) [MMV676468] | 0.4
CCOc1ccc(OCC(=O)Nc2cc(C)cc(C)c2)cc1 [MMV676470] | 9
COc1cccc(OC)c1C(=O)Nc1ccc(Cl)c(-c2nc3ccccc3s2)c1 [MMV676472] | 14
O=C(C1CCN(c2nnc(-n3cccc3)s2)CC1)N1CCC(Cc2ccccc2)CC1 [MMV676478] | 2.5

Same assay, conditions: 10’ (pre-incubation); sheet Screening results

SMILES | Cruzain Inhibition 10’ [%]
COc1cccc(-n2nnnc2S(=O)(=O)Cc2ccccc2)c1 [MMV676388] | 12
O=C(c1n[nH]c2c1CCCC2)N1CCN(Cc2ccc3c(c2)OCO3)CC1 [MMV676389] | -3.4
O=C(Nc1cccnc1)c1c(O)c2cccc3c2n(c1=O)CC3 [MMV676395] | 8
c1coc(CNc2nc(N3CCCCC3)nc3ccccc23)c1 [MMV676401] | 9
CC(C)n1ncc2c(C(=O)NCC(c3cccs3)N3CCOCC3)cc(-c3ccccc3)nc21 (centres unmarked) [MMV676406] | 6
N#Cc1nc(-c2ccccc2)oc1S(=O)(=O)c1ccc(Cl)cc1 [MMV676412] | -27
Cc1ccc(NC(=O)CC2COc3ccccc3O2)cc1Cl (centres unmarked) [MMV676431] | 4.3
Cc1ccc2nc(Cl)c(CNCc3cccs3)cc2c1 [MMV676439] | 6.5
CC(C)c1ncc(-c2ccncc2)c(C2CCC(CNC(=O)c3cccnc3)CC2)n1 (centres unmarked) [MMV676442] | 1.2
O=C(NC1CCCCC1)N1CCN(Cc2ccc3c(c2)OCO3)CC1 [MMV676444] | 5.5
CCCn1c(CNc2ccccc2O)nc2ccccc21 [MMV676445] | 3.6
CCc1nc2ccccc2n1CC(O)COc1cc(C)ccc1Cl (centres unmarked) [MMV676449] | 6
CCOC(=O)c1cc(-c2csc(Nc3c(C)cc(C)cc3C)n2)on1 [MMV676461] | 4
COc1ccccc1OCCCCn1c(C2CC2)nc2ccccc21 [MMV676474] | -11
Cc1cc(C)cc(COc2ccc3c(C)c(CCC(=O)O)c(=O)oc3c2C)c1 [MMV676476] | -3.3
CCc1c(C)nc(-n2nc(C)cc2NC(=O)c2ccccc2SC)[nH]c1=O [MMV676477] | -11
COC(=O)c1c(NC(=O)c2cc3ccccc3oc2=O)sc2c1CCN(Cc1ccccc1)C2 [MMV676480] | 5.6

Same assay, conditions: solid samples, varying compound concentrations

SMILES | Increase in the enzyme velocity in confirmatory assays
O=C(COc1cccc(F)c1)Nc1nc(-c2ccccn2)cs1 [MMV676409] | no increase in the enzyme velocity

Target: T1, TbrCatL (Trypanosoma brucei rhodesiense, UniProt Q95PM0)
T1 construct: Conor Caffrey (University of California San Diego)
T1 sequence (Q95PM0 entry or part of it): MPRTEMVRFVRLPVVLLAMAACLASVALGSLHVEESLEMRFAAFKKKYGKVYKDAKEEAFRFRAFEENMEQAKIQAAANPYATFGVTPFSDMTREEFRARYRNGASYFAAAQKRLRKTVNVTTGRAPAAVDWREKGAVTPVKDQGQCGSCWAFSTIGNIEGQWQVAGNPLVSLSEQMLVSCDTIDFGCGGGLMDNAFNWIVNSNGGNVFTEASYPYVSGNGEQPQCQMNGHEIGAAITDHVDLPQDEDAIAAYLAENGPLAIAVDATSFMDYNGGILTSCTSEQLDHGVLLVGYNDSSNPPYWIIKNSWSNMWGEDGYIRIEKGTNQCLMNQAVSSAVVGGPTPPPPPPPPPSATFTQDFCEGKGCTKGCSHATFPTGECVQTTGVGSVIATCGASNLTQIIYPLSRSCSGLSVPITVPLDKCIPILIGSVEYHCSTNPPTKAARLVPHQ
Experiment: TbrCatL enzymatic inhibition assay (cleavage of fluorogenic substrate Z-FR-AMC);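 on TbrCatL 0’ Inhibition: at 5 µM compound concentration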;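 on TbrCatL 10’ Inhibition: at 5 µM compound concentration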;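 on TbrCatL Inhibition 0’: at 5 µM compound concentration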;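 on TbrCatL Inhibition 10’: at 5 µM compound concentration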
Format: biochemical
Conditions: 0’ (no pre-incubation); sheet Screening results
Procedure, shortened: as §1

SMILES | TbrCatL Inhibition 0’ [%]
COc1cccc(-n2nnnc2S(=O)(=O)Cc2ccccc2)c1 [MMV676388] | 18
O=C(c1n[nH]c2c1CCCC2)N1CCN(Cc2ccc3c(c2)OCO3)CC1 [MMV676389] | -12
O=C(Nc1cccnc1)c1c(O)c2cccc3c2n(c1=O)CC3 [MMV676395] | 17
c1coc(CNc2nc(N3CCCCC3)nc3ccccc23)c1 [MMV676401] | 6.5
CC(C)n1ncc2c(C(=O)NCC(c3cccs3)N3CCOCC3)cc(-c3ccccc3)nc21 (centres unmarked) [MMV676406] | 17
O=C(COc1cccc(F)c1)Nc1nc(-c2ccccn2)cs1 [MMV676409] | -77
N#Cc1nc(-c2ccccc2)oc1S(=O)(=O)c1ccc(Cl)cc1 [MMV676412] | 5.5
Cc1ccc(NC(=O)CC2COc3ccccc3O2)cc1Cl (centres unmarked) [MMV676431] | 5
Cc1ccc2nc(Cl)c(CNCc3cccs3)cc2c1 [MMV676439] | 5.4
CC(C)c1ncc(-c2ccncc2)c(C2CCC(CNC(=O)c3cccnc3)CC2)n1 (centres unmarked) [MMV676442] | -7.5
O=C(NC1CCCCC1)N1CCN(Cc2ccc3c(c2)OCO3)CC1 [MMV676444] | 9
CCCn1c(CNc2ccccc2O)nc2ccccc21 [MMV676445] | 6
CCc1nc2ccccc2n1CC(O)COc1cc(C)ccc1Cl (centres unmarked) [MMV676449] | 1.5
CCOC(=O)c1cc(-c2csc(Nc3c(C)cc(C)cc3C)n2)on1 [MMV676461] | 6
COc1ccccc1OCCCCn1c(C2CC2)nc2ccccc21 [MMV676474] | -3.8
Cc1cc(C)cc(COc2ccc3c(C)c(CCC(=O)O)c(=O)oc3c2C)c1 [MMV676476] | -17
CCc1c(C)nc(-n2nc(C)cc2NC(=O)c2ccccc2SC)[nH]c1=O [MMV676477] | -4
COC(=O)c1c(NC(=O)c2cc3ccccc3oc2=O)sc2c1CCN(Cc1ccccc1)C2 [MMV676480] | 0.5

Same assay, conditions: 0’ (pre-incubation time); Pathogen Box screening results

SMILES | TbrCatL Inhibition 0’ [%]
O=C(Nc1n[nH]c(=S)s1)c1cc(Br)ccc1Cl [MMV676492] | -16

Same assay, conditions: 0’ (pre-incubation time); sheet "Screening results"

SMILES | TbrCatL 0’ Inhibition [%]
CCS(=O)(=O)N(Cc1ccco1)Cc1cc2ccc(C)cc2[nH]c1=O [MMV676398] | 8
CC(Oc1ccccc1)C(=O)Nc1nc(-c2ccccn2)cs1 (centres unmarked) [MMV676411] | -14
NC(CC(=O)c1ccc(Cl)cc1Cl)C(Cl)(Cl)Cl (centres unmarked) [MMV676468] | -5
CCOc1ccc(OCC(=O)Nc2cc(C)cc(C)c2)cc1 [MMV676470] | -0.9
COc1cccc(OC)c1C(=O)Nc1ccc(Cl)c(-c2nc3ccccc3s2)c1 [MMV676472] | 4
O=C(C1CCN(c2nnc(-n3cccc3)s2)CC1)N1CCC(Cc2ccccc2)CC1 [MMV676478] | 2.2

Same assay, conditions: 5 µM, PB library solutions, 10 min pre-incubation, vs DMSO control

SMILES | Increase in the initial velocity of the reaction (%) 5 µM using PB samples TbrCatL [%]
O=C(COc1cccc(F)c1)Nc1nc(-c2ccccn2)cs1 [MMV676409] | 772 ± 382

Same assay, conditions: 10’ (pre-incubation time); Pathogen Box screening results

SMILES | TbrCatL Inhibition 10’ [%]
O=C(Nc1n[nH]c(=S)s1)c1cc(Br)ccc1Cl [MMV676492] | 35

Same assay, conditions: 10’ (pre-incubation time); sheet "Screening results"

SMILES | TbrCatL 10’ Inhibition [%]
CCS(=O)(=O)N(Cc1ccco1)Cc1cc2ccc(C)cc2[nH]c1=O [MMV676398] | 9
CC(Oc1ccccc1)C(=O)Nc1nc(-c2ccccn2)cs1 (centres unmarked) [MMV676411] | -0.8
NC(CC(=O)c1ccc(Cl)cc1Cl)C(Cl)(Cl)Cl (centres unmarked) [MMV676468] | -2
CCOc1ccc(OCC(=O)Nc2cc(C)cc(C)c2)cc1 [MMV676470] | 4
COc1cccc(OC)c1C(=O)Nc1ccc(Cl)c(-c2nc3ccccc3s2)c1 [MMV676472] | -2
O=C(C1CCN(c2nnc(-n3cccc3)s2)CC1)N1CCC(Cc2ccccc2)CC1 [MMV676478] | -8

Same assay, conditions: 10’ (pre-incubation); sheet Screening results

SMILES | TbrCatL Inhibition 10’ [%]
COc1cccc(-n2nnnc2S(=O)(=O)Cc2ccccc2)c1 [MMV676388] | 15
O=C(c1n[nH]c2c1CCCC2)N1CCN(Cc2ccc3c(c2)OCO3)CC1 [MMV676389] | -7
O=C(Nc1cccnc1)c1c(O)c2cccc3c2n(c1=O)CC3 [MMV676395] | 19
c1coc(CNc2nc(N3CCCCC3)nc3ccccc23)c1 [MMV676401] | 15
CC(C)n1ncc2c(C(=O)NCC(c3cccs3)N3CCOCC3)cc(-c3ccccc3)nc21 (centres unmarked) [MMV676406] | 15
N#Cc1nc(-c2ccccc2)oc1S(=O)(=O)c1ccc(Cl)cc1 [MMV676412] | -69
Cc1ccc(NC(=O)CC2COc3ccccc3O2)cc1Cl (centres unmarked) [MMV676431] | 5
Cc1ccc2nc(Cl)c(CNCc3cccs3)cc2c1 [MMV676439] | 5
CC(C)c1ncc(-c2ccncc2)c(C2CCC(CNC(=O)c3cccnc3)CC2)n1 (centres unmarked) [MMV676442] | -6
O=C(NC1CCCCC1)N1CCN(Cc2ccc3c(c2)OCO3)CC1 [MMV676444] | 8
CCCn1c(CNc2ccccc2O)nc2ccccc21 [MMV676445] | 3.3
CCc1nc2ccccc2n1CC(O)COc1cc(C)ccc1Cl (centres unmarked) [MMV676449] | 3.5
CCOC(=O)c1cc(-c2csc(Nc3c(C)cc(C)cc3C)n2)on1 [MMV676461] | 15
COc1ccccc1OCCCCn1c(C2CC2)nc2ccccc21 [MMV676474] | -17
Cc1cc(C)cc(COc2ccc3c(C)c(CCC(=O)O)c(=O)oc3c2C)c1 [MMV676476] | -2.6
CCc1c(C)nc(-n2nc(C)cc2NC(=O)c2ccccc2SC)[nH]c1=O [MMV676477] | -17
COC(=O)c1c(NC(=O)c2cc3ccccc3oc2=O)sc2c1CCN(Cc1ccccc1)C2 [MMV676480] | -3.2

Same assay, conditions: TbrCatL 10′ inc, screening at 5 µM

SMILES | Increase in initial velocity of substrate cleavage in comparison to the DMSO control
O=C(COc1cccc(F)c1)Nc1nc(-c2ccccn2)cs1 [MMV676409] | up to 8 fold
